Assay results from BindingDB's records for patent US20240352000 (Korea Research Institute of Chemical Technology, 2024).

Tests used:
[1] = molecular target: T1, Epidermal growth factor receptor [DEL746-750,T790M,C797S] (Homo sapiens, UniProt P00533, C797S/DEL746-750/T790M); experiment: Measurement of Inhibitory Ability of the Compounds Represented by Formula 1 According to the Present Invention Against Wild Type EGFR and EGFR Mutants
T1 construct: gene EGFR
Experimental: (§1) An experiment to measure the activity of the compounds of the present invention against EGFR mutant enzymes was performed as follows using the HTRF system sold by Cisbio. For the EGFR del19/T790M mutant enzyme, a recombinant protein provided by Carna Biosciences was purchased and used, and for the EGFR del19/T790M/C797S mutant enzyme, a protein provided by SignalChem was purchased and used as an enzyme source.The composition of the assay buffer used for measuring the activity was 50 mM Tris-HCl pH 7.5, 100 mM NaCl, 7.5 mM MgCl2, 3 mM KCl, 0.01% Tween 20, 0.1% BSA, and 1 mM DTT. Here, an enzyme reaction was performed using […] and a peptide substrate labeled with biotin at a concentration of 0.5 mM. Analysis of the inhibitory effect of the compounds against the EGFR activity was conducted according to the following analysis reaction recipe.Component 1: 4 μL of an EGFR mutant enzymeComponent 2: 2 μL of a compound solutionComponent 3: 4 μL of ATP and a peptide labeled with biotinThe enzyme reaction was started by first mixing Component 1 and Component 2 and then adding Component 3. After reaction at 37° C. for 2 hours, […] consisting of streptavidin-XL665 and europium-labeled anti-phosphotyrosine antibody provided by Cisbio was added to the enzyme reaction solution and reacted at room temperature for 1 hour. Finally, the ratio of fluorescence values at 615 nm and 665 nm was obtained using the Envision equipment from Perkin-Elmer to quantitatively measure the enzyme activity and confirmed the inhibitory ability of the compounds.

[2] = molecular target: T2, Epidermal growth factor receptor [DEL746-750,T790M] (Homo sapiens, UniProt P00533, DEL746-750/T790M); experiment: as above
T2 construct: gene EGFR
Experimental: as §1

T2 sequence (P00533 with tags, fused parts or gaps DEL746-750/T790M limits assumed): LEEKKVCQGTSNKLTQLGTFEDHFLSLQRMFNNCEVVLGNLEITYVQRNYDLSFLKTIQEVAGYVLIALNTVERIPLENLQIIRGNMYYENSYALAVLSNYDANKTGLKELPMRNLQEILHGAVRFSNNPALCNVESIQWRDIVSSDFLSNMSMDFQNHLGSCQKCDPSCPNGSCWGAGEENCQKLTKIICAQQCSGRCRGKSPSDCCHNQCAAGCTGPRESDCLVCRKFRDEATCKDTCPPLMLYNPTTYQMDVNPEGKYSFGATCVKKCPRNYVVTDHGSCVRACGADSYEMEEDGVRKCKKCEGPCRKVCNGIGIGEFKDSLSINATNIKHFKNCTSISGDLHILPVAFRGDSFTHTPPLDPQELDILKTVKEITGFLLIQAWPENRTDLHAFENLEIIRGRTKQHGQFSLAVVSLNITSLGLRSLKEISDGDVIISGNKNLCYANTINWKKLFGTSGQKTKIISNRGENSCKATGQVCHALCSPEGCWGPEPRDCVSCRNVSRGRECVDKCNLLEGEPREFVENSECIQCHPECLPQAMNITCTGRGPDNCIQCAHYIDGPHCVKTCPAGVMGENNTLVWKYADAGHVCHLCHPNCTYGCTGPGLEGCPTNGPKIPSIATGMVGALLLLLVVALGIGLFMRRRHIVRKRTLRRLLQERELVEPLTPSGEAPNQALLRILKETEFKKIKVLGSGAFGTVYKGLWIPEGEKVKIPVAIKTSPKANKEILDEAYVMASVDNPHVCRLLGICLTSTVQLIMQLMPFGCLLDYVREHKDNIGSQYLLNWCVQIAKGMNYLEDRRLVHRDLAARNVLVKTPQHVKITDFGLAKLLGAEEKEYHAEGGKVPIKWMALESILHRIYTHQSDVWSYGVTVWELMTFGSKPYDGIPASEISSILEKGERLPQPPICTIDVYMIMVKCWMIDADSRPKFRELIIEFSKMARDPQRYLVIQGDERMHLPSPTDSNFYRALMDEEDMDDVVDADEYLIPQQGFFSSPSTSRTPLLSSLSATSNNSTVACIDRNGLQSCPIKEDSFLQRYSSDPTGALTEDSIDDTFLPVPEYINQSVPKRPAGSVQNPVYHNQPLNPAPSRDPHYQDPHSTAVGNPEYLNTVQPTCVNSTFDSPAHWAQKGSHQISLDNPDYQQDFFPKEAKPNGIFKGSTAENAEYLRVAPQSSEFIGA
T1 sequence (P00533 with tags, fused parts or gaps C797S/DEL746-750/T790M limits assumed): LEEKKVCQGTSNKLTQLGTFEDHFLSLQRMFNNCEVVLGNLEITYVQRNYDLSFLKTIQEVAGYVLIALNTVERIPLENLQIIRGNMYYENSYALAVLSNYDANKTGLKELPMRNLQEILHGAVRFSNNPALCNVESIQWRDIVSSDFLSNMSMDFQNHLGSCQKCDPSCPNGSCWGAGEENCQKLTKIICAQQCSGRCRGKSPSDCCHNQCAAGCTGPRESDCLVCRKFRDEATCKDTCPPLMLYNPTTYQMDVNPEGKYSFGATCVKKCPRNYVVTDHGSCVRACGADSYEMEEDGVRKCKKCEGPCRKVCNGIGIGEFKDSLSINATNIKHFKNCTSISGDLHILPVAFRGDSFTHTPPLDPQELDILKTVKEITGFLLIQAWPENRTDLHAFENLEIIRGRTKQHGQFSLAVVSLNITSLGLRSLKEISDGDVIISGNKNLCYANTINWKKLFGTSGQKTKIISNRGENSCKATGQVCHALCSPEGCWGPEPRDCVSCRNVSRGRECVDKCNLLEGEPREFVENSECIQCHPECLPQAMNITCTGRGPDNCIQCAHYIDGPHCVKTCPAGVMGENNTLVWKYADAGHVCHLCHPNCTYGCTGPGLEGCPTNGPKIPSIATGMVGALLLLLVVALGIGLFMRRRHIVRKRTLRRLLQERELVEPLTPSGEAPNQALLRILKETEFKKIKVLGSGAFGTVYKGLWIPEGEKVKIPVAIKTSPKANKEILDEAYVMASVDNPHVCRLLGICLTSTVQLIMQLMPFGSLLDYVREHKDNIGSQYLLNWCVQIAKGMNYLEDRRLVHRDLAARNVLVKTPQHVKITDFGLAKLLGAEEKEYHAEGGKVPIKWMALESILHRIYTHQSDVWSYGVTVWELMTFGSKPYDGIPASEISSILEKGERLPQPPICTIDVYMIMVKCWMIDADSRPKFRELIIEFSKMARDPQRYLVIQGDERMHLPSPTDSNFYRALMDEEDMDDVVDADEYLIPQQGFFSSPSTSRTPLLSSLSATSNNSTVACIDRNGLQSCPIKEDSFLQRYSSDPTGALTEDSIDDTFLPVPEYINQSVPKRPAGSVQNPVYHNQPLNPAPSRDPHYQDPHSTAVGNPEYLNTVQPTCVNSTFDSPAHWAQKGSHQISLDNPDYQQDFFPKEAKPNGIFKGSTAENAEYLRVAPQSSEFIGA

Row | IC50 [1] [nM] | IC50 [2] [nM] | SMILES
1 | < 1 | – | COc1cc(N2CCC(N3CCN(C)CC3)CC2)ccc1Nc1ncc(Cl)c(Nc2cccc3c2N(C(C)=O)CC3)n1 [US20240352000, Example 12]
2 | 56 | 73 | COc1cc(N2CCC(N3CCN(C)CC3)CC2)ccc1Nc1ncc(Cl)c(Nc2cccc3c2N(C(C)=O)CCC3)n1 [US20240352000, Example 15]
3 | 50 | 91 | CCC(=O)N1CCc2cccc(Nc3nc(Nc4ccc(N5CCC(N6CCN(C)CC6)CC5)cc4OC)ncc3Cl)c21 [US20240352000, Example 14]
4 | – | < 1 | CCS(=O)(=O)N1CCc2cccc(Nc3nc(Nc4ccc(N5CCC(N6CCN(C)CC6)CC5)cc4OC)ncc3Cl)c21 [US20240352000, Example 13]
5 | < 1 | – | COc1cc(N(C)CCN(C)C)ccc1Nc1ncc(Cl)c(Nc2cccc3c2N(S(C)(=O)=O)CC3)n1 [US20240352000, Example 3]
6 | < 1 | – | COc1cc(N2CCC(N3CCNCC3)CC2)ccc1Nc1ncc(Cl)c(Nc2cccc3c2N(S(C)(=O)=O)CC3)n1 [US20240352000, Example 17]
